Data taken from US8895695B2, “Template-fixed beta-hairpin peptidomimetics with CXCR4 antagonizing activity” (priority 2003, dated 2014).
Bridge positions count the residues as written; N and C are the ends. Square brackets hold non-standard residues; d marks the D form. Peptide text beside a SMILES is read from it. 2Nal = N[C@@H](Cc1ccc2ccccc2c1)C(=O)O; Cit = NC(=O)NCCC[C@H](N)C(=O)O

Columns and labels:
[1] = test system: human red blood cells (hRBC); experiment: Hemolysis; assay type: cell-based
In short: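 Washed fresh human erythrocytes (20% v/v, about 0.9×10^9 cells/ml final) incubated with peptide at 100 μM for 1 h at 37° C. Supernatant diluted 20-fold and OD540 read. Percent hemolysis relative to 0.1% Triton X-100 in H2O (100%), with PBS alone as 0%.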

in vitro = conditions: human, HELA cells (Acc57)
Method: (§1) Each peptide concentration was assayed in triplicate. […] Wells were then washed once with PBS and subsequently 100 μl MTT reagent (0.5 mg/mL in medium RPMI1640 and, respectively, DMEM) was added to the wells. This was incubated at 37° C. for 2 hours and subsequently the medium was aspirated and 100 μl isopropanol was added to each well. […] For each concentration averages were calculated from triplicates. The percentage of growth was calculated as follows: (OD595peptide-OD595Tz-OD595Empty well)/(OD595Tz-OD595Empty well)×100% and was plotted for each peptide concentration.
(§2) ‘CCR5’ cells were cultured in DMEM medium with 4500 mg/ml glucose, 10% fetal bovine serum (FBS), supplemented with 50 U/ml Penicillin and 50 μg/ml Streptomycin (Pen/Strept.). Hut/4-3 cells were maintained in RPMI medium, 10% FBS, supplemented with Pen/Strept. and 10 mM HEPES. HELA cells and CCRF-CEM cells were maintained in RPMI1640 plus 5% FBS, Pen/Strept and 2 mM L-Glutamine. Cos-7 cells were grown in DMEM medium with 4500 mg/ml glucose supplemented with 10% FCS, Pen/Strept. and 2 mM L-Glutamine. All cell lines were grown at 37° C. at 5% CO2.

CXCR4 = CXCR4 (Homo sapiens, UniProt P61073); experiment: Ca2+-assay method 1: CXCR4-antagonizing activity; assay type: cell-based; design: expressed in transfected cells; conditions: method 1 (Ex. 1-53), CXCR4 transfected pre-B cells, Fura-2; read-out: IC50 (nM) Ca^2+ assay
Method: 2.2. Ca^2+-Assay: CXCR4-Antagonizing Activity of the Peptides.
The cells were washed free from Fura-2-AM with a platelet centrifuge and resuspended in 800 μl MSB containing 5 mM D-Glucose. The peptides to be administered were diluted to a 100 fold end concentration in MSB/0.2% PPL, and 8 μl were injected. […] Measurements were done under continuous stirring at 37° C. The signal intension was calibrated with 3 mM CaCl2/[…] lonomycin (maximal fura-2-acetoxymethylester saturation) and 10 μM MnCl2 (minimal Fura-2-acetoxymethylester saturation) and [Ca^2+]i-changes are presented in % fora-2-acetoxymethylester saturation. The rate of [Ca^2+]i-changes was calculated on the basis of the initial [Ca^2+]i-changes and plotted in dependence of chemokine concentration to obtain a sigmoidal curve and to determine the IC50 values.
Osmolarity: 310 mOsm adjusted with NaOH or HCl, adjusted with H2O or PBS.
MSB plus: 5 mM D-glucose in MSB (50 mg/50 mL).
Fura 2-acetoxymethylester: 1 mM stock solution in dimethylsulfoxide.

[2] = test system: 'CCR5' cells / Hut/4-3 cells co-cultivation; experiment: FIGS-Assay; assay type: cell-based; conditions: 200 nM peptide, 48 hours of co-cultivation
Method: The assay was performed according to ref. 5, below. Stock dilutions of the peptides (10 mM) were prepared by dissolving in 10 mM Tris-HCl at room temperature. Stock solutions were kept at +4° C., light protected. Working dilutions were prepared extemporaneously by serial dilution in Phosphate Buffered Saline (PBS) and added in a final volume of 10 μl directly to the cell cultures. After 48 hours of co-cultivation the cultures were rinsed with PBS and then exposed to glutaraldehyde/formaldehyde (0.2%/2%) in PBS for five minutes. For photometric quantification the fixed cultures were subsequently incubated with ortho-nitro-phenyl-galactopyranoside (ONPG) as a β-galactosidase substrate, which was enzymatically converted into the chromophore ortho-nitrophenol (ONP). The read out is directly obtained by measuring optical density of wells at 405 nm in an iEMS 96well-plate reader.
All fine chemicals came from Merck (Darmstadt, Germany).

[3] = Cytotoxicity assay (MTT reduction), HELA cells; conditions: human, HELA cells (Acc57);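 note: MTT reduction read as absorbance at 595 nm, blank-corrected and expressed as percent growth relative to the time-zero cell reading, triplicate wells per concentration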
Method: as §1, §2

Chain of CXCR4 (P61073 whole entry): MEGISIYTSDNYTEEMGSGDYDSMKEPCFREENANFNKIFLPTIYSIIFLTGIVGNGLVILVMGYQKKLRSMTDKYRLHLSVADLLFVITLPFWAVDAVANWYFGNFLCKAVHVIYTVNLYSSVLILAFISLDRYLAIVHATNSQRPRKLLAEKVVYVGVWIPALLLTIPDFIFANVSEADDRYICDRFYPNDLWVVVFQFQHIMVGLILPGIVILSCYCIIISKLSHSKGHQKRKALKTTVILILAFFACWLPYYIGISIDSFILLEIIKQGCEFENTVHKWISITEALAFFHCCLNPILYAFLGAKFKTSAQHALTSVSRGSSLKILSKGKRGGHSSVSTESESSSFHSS

SMILES | Hemolysis at 100 μM [1] | CC50 at 48 h (in vitro) | IC50 (CXCR4) | FIGS % inhibition at 200 nM [2] | CC50 at 48 h [3]
CC(C)[C@@H]1NC(=O)[C@H](Cc2ccc3ccccc3c2)NC(=O)[C@H](CCCNC(=N)N)NC(=O)[C@H](CCCNC(=N)N)NC(=O)[C@@H]2CCCN2C(=O)[C@H](C(C)C)NC(=O)[C@H](CCCNC(=N)N)NC(=O)[C@H](Cc2ccccc2)NC(=O)[C@H](CCCNC(N)=O)NC(=O)[C@H](CCCNC(=N)N)NC(=O)[C@H](Cc2ccc(O)cc2)NC(=O)[C@@H]2CCCN2C(=O)[C@H]2CCCN2C(=O)[C@H](CCCCN)NC(=O)[C@H](CCCNC(N)=O)NC(=O)[C@H](Cc2ccc(O)cc2)NC1=O [compound 22] (cyclo(YR[Cit]FRVPRR[2Nal]VY[Cit]K[dP]P)) | 0% | 139 µM | 300 nM |  | 
CC(C)[C@@H]1NC(=O)[C@H](Cc2ccc3ccccc3c2)NC(=O)[C@H](CCCNC(=N)N)NC(=O)[C@H](CCCNC(=N)N)NC(=O)[C@H]2CCCN2C(=O)[C@H](Cc2ccccc2)NC(=O)[C@H](CCCNC(=N)N)NC(=O)[C@H](Cc2ccccc2)NC(=O)[C@H](CCCNC(N)=O)NC(=O)[C@H](CCCNC(=N)N)NC(=O)[C@H](Cc2ccc(O)cc2)NC(=O)[C@@H]2CCCN2C(=O)[C@H]2CCCN2C(=O)[C@H](CCCCN)NC(=O)[C@H](CCCNC(N)=O)NC(=O)[C@H](Cc2ccc(O)cc2)NC1=O [compound 23] (cyclo(YR[Cit]FRF[dP]RR[2Nal]VY[Cit]K[dP]P)) | 1.4% | 49 µM | 1550 nM |  | 
CC(C)[C@@H]1NC(=O)[C@H](Cc2ccc3ccccc3c2)NC(=O)[C@H](CCCNC(=N)N)NC(=O)[C@H](CCCNC(=N)N)NC(=O)[C@@H]2CCCN2C(=O)[C@H](Cc2ccccc2)NC(=O)[C@H](CCCNC(=N)N)NC(=O)[C@H](Cc2ccccc2)NC(=O)[C@H](CCCNC(N)=O)NC(=O)[C@H](CCCNC(=N)N)NC(=O)[C@H](Cc2ccc(O)cc2)NC(=O)[C@@H]2CCCN2C(=O)[C@H]2CCCN2C(=O)[C@H](CCCCN)NC(=O)[C@H](CCCNC(N)=O)NC(=O)[C@H](Cc2ccc(O)cc2)NC1=O [compound 24] (cyclo(YR[Cit]FRFPRR[2Nal]VY[Cit]K[dP]P)) | 0.7% | 108 µM | 850 nM |  | 
CC(C)[C@@H]1NC(=O)[C@H](Cc2ccc3ccccc3c2)NC(=O)[C@H](CCCNC(=N)N)NC(=O)[C@H](CCCNC(=N)N)NC(=O)[C@H]2CCCN2C(=O)[C@H](CCCNC(N)=O)NC(=O)[C@H](CCCNC(=N)N)NC(=O)[C@H](C(C)C)NC(=O)[C@H](CCCNC(N)=O)NC(=O)[C@H](CCCNC(=N)N)NC(=O)[C@H](Cc2ccc(O)cc2)NC(=O)[C@@H]2CCCN2C(=O)[C@H]2CCCN2C(=O)[C@H](CCCCN)NC(=O)[C@H](CCCNC(N)=O)NC(=O)[C@H](Cc2ccc(O)cc2)NC1=O [compound 25] (cyclo(YR[Cit]VR[Cit][dP]RR[2Nal]VY[Cit]K[dP]P)) | 0% | 108 µM | 1000 nM |  | 
CC(C)[C@@H]1NC(=O)[C@H](CCCNC(=N)N)NC(=O)[C@H](Cc2ccccc2)NC(=O)[C@H](CCCNC(N)=O)NC(=O)[C@H](CCCNC(=N)N)NC(=O)[C@H](Cc2ccc(O)cc2)NC(=O)[C@@H]2CCCN2C(=O)[C@H]2CCCN2C(=O)[C@H](CCCCN)NC(=O)[C@H](CCCNC(N)=O)NC(=O)[C@H](Cc2ccc(O)cc2)NC(=O)[C@H](Cc2ccccc2)NC(=O)[C@H](Cc2ccc3ccccc3c2)NC(=O)[C@H](CCCNC(=N)N)NC(=O)[C@H](CCCNC(=N)N)NC(=O)[C@@H]2CCCN2C1=O [compound 28] (cyclo(YR[Cit]FRVPRR[2Nal]FY[Cit]K[dP]P)) | 0.9% | 117 µM | 2680 nM |  | 
CC(C)[C@@H]1NC(=O)[C@H](CCCNC(N)=O)NC(=O)[C@H](CCCNC(=N)N)NC(=O)[C@H](Cc2ccc(O)cc2)NC(=O)[C@@H]2CCCN2C(=O)[C@H]2CCCN2C(=O)[C@H](CCCCN)NC(=O)[C@H](CCCNC(N)=O)NC(=O)[C@H](Cc2ccc(O)cc2)NC(=O)[C@H](Cc2ccccc2)NC(=O)[C@H](Cc2ccc3ccccc3c2)NC(=O)[C@H](CCCNC(=N)N)NC(=O)[C@H](CCCNC(=N)N)NC(=O)[C@@H]2CCCN2C(=O)[C@H](CCCNC(N)=O)NC(=O)[C@H](CCCNC(=N)N)NC1=O [compound 31] (cyclo(YR[Cit]VR[Cit]PRR[2Nal]FY[Cit]K[dP]P)) | 0.1% | 82 µM | 1470 nM |  | 
CC(C)[C@@H]1NC(=O)[C@H](CCCNC(N)=O)NC(=O)[C@H](CCCNC(=N)N)NC(=O)[C@H](Cc2ccc(O)cc2)NC(=O)[C@@H]2CCCN2C(=O)[C@H]2CCCN2C(=O)[C@H](CCCCN)NC(=O)[C@H](CCCNC(N)=O)NC(=O)[C@H](Cc2ccc(O)cc2)NC(=O)[C@H](Cc2ccccc2)NC(=O)[C@H](Cc2ccc3ccccc3c2)NC(=O)[C@H](CCCNC(=N)N)NC(=O)[C@H](CCCNC(=N)N)NC(=O)[C@H]2CCCN2C(=O)[C@H](C(C)C)NC(=O)[C@H](CCCNC(=N)N)NC1=O [compound 32] (cyclo(YR[Cit]VRV[dP]RR[2Nal]FY[Cit]K[dP]P)) | 0.5% | 85 µM | 760 nM |  | 
N=C(N)NCCC[C@@H]1NC(=O)[C@H](Cc2ccccc2)NC(=O)[C@H](CCCNC(N)=O)NC(=O)[C@H](CCCNC(=N)N)NC(=O)[C@H](Cc2ccc(O)cc2)NC(=O)[C@@H]2CCCN2C(=O)[C@H]2CCCN2C(=O)[C@H](CCCCN)NC(=O)[C@H](CCCNC(N)=O)NC(=O)[C@H](Cc2ccc(O)cc2)NC(=O)[C@H](Cc2ccccc2)NC(=O)[C@H](Cc2ccc3ccccc3c2)NC(=O)[C@H](CCCNC(=N)N)NC(=O)[C@H](CCCNC(=N)N)NC(=O)[C@H]2CCCN2C(=O)CNC1=O [compound 38] (cyclo(YR[Cit]FRG[dP]RR[2Nal]FY[Cit]K[dP]P)) | 0.3% | 348 µM | 720 nM |  | 
CC(C)[C@@H]1NC(=O)[C@H](CCCNC(N)=O)NC(=O)[C@H](CCCNC(=N)N)NC(=O)[C@H](Cc2ccc(O)cc2)NC(=O)[C@@H]2CCCN2C(=O)[C@H]2CCCN2C(=O)[C@H](CCCCN)NC(=O)[C@H](CCCNC(N)=O)NC(=O)[C@H](Cc2ccc(O)cc2)NC(=O)[C@H](C(C)C)NC(=O)[C@H](Cc2ccc3ccccc3c2)NC(=O)[C@H](CCCNC(=N)N)NC(=O)[C@H](CCCNC(=N)N)NC(=O)[C@H]2CCCN2C(=O)CNC(=O)[C@H](CCCNC(=N)N)NC1=O [compound 45] (cyclo(YR[Cit]VRG[dP]RR[2Nal]VY[Cit]K[dP]P)) | 0.4% | 132 µM |  | 65.1% | 
CC(C)[C@@H]1NC(=O)[C@H](CCCNC(=N)N)NC(=O)[C@@H]2CSSC[C@H](NC(=O)[C@H](Cc3ccc4ccccc4c3)NC(=O)[C@H](CCCNC(=N)N)NC(=O)[C@H](CCCNC(=N)N)NC(=O)CNC1=O)C(=O)N[C@@H](Cc1ccc(O)cc1)C(=O)N[C@@H](CCCNC(N)=O)C(=O)N[C@@H](CCCCN)C(=O)N1CCC[C@@H]1C(=O)N1CCC[C@H]1C(=O)N[C@@H](Cc1ccc(O)cc1)C(=O)N[C@@H](CCCNC(=N)N)C(=O)N[C@@H](CCCNC(N)=O)C(=O)N2 [compound 53] (cyclo(YR[Cit]CRVGRR[2Nal]CY[Cit]K[dP]P); disulfide 4-11) | 0.2% |  | 57.8 nM | 91.8% | 86 µM
